Holding throughout (test): Ba/F3 cell drug screening, Cell Titer Glo
Assay type in all cases: cell-based

The target of one experiment is T1, EGFR L861Q (Homo sapiens, UniProt P00533, L861Q).
T1 construct: expressed in transfected cells; host or cells: Ba/F3 (retroviral, pBabe-Puro based vector)
The conditions noted are these: Ba/F3 cells expressing EGFR L861Q; 72 hours. Here is the method:
(§1) Ba/F3 cell generation, drug screening, and IC50 approximations. Ba/F3 cells were obtained as a gift from Dr. Gordon Mills (MD Anderson Cancer Center), and maintained in RPMI (Sigma) containing 10% FBS, 1% penicillin/streptomycin, and 10 ng/ml recombinant mIL-3 (R&D Biosystems). To establish stable Ba/F3 cell lines, Ba/F3 cells were transduced with retroviruses containing mutant EGFR plasmids for 12-24 hours. Retroviruses were generated using Lipofectamine 2000 (Invitrogen) transfections of Phoenix 293T-ampho cells (Orbigen) with pBabe-Puro based vectors listed below in Table 6. Vectors were generated by GeneScript or Bioinnovatise using parental vectors from Addgene listed below in Table 6.
(§2) After 48-72 hours of transduction, 2 μg/ml puromycin (Invitrogen) was added to Ba/F3 cell lines in complete RPMI. To select for EGFR positive cell lines, cells were stained with PE-EGFR (Biolegend) and sorted by FACS. After sorting, EGFR positive cells were maintained in RPMI containing 10% FBS, 1% penicillin/streptomycin, and 1 ng/ml EGF to support cell viability. Drug screening was performed as previously described^41,42. Shortly, cells were plated in 384-well plates (Greiner Bio-One) at 2000-3000 cells per well in technical triplicate. Seven different concentrations of TKIs or DMSO vehicle were added to reach a final volume of 40 μL per well. After 72 hours, 11p L of Cell Titer Glo (Promega) was added to each well. Plates were incubated for a minimum of 10 minutes, and bioluminescence was determined using a FLUOstar OPTIMA plate reader (BMG LABTECH). Raw bioluminescence values were normalized to DMSO control treated cells, and values were plotted in GraphPad Prism. Non-linear regressions were used to fit the normalized data with a variable slope, and IC50 values were determined by GraphPad prism by interpolation of concentrations at 50% inhibition. Drug screens were performed in technical triplicate on each plate and either duplicate or triplicate biological replicates. Mutant to WT ratios (Mut/WT) for each drug were calculated by dividing the IC50 values of mutant cell lines by the average IC50 value of Ba/F3 cells expressing WT EGFR supplemented with 10 ng/ml EGF for each drug. Statistical differences between groups were determined by ANOVA as described in the figure legends.

Another experiment deals with T2, EGFR L858R/T790M/L718Q (Homo sapiens, UniProt P00533, L718Q/L858R/T790M).
T2 construct: expressed in transfected cells; host or cells: Ba/F3 (retroviral transduction, pBabe-Puro based vectors)
The conditions noted are these: Ba/F3 cells expressing EGFR L858R/T790M/L718Q; 72 hours. Here is the method:
as §1, §2

In another experiment the target is T3, EGFR Ex19del L718Q (Homo sapiens, UniProt P00533, DEL746-750/L718Q).
T3 construct: expressed in transfected cells; host or cells: Ba/F3 (murine pro-B cells), retroviral transduction with pBabe-Puro based vectors
The following applies: Ba/F3 cells expressing EGFR Ex19del L718Q; 72 hours. Here is the method: as §1, §2

The next experiment addresses T4, EGFR L858R/V834L (Homo sapiens, UniProt P00533, L858R/V834L).
T4 construct: expressed in transfected cells; host or cells: Ba/F3 (retroviral, pBabe-Puro based vector)
The conditions noted are these: Ba/F3 cells expressing EGFR L858R/V834L; 72 hours. As for the experimental part:
as §1, §2

Another experiment has as its target T5, EGFR G724S T790M (Homo sapiens, UniProt P00533, G724S/T790M).
T5 construct: expressed in transfected cells; host or cells: Ba/F3 (retroviral transduction, pBabe-Puro based vectors)
The following applies: Ba/F3 cells expressing EGFR G724S T790M; 72 hours. As for the experimental part:
as §1, §2

A further experiment has as its target T6, EGFR L718V (Homo sapiens, UniProt P00533, L718V).
T6 construct: expressed in transfected cells; host or cells: Ba/F3 (retroviral transduction, pBabe-Puro based vectors)
The conditions noted are these: Ba/F3 cells expressing EGFR L718V; 72 hours. Here is the method: as §1, §2

In another experiment the target is T7, EGFR L858R L718Q (Homo sapiens, UniProt P00533, L718Q/L858R).
T7 construct: host or cells: Ba/F3 (retroviral transduction, pBabe-Puro based vectors)
The following applies: Ba/F3 cells expressing EGFR L858R L718Q; 72 hours. Here is the method:
as §1, §2

A further experiment deals with T8, EGFR Ex19del T790M L718V (Homo sapiens, UniProt P00533, DEL746-750/L718V/T790M).
T8 construct: expressed in transfected cells; host or cells: Ba/F3 (retroviral transduction, pBabe-Puro based vectors)
The following applies: Ba/F3 cells expressing EGFR Ex19del T790M L718V; 72 hours. As for the experimental part:
as §1, §2

Another experiment addresses T9, EGFR S768dupSVD (Homo sapiens, UniProt P00533, DUP768-770).
T9 construct: expressed in transfected cells; host or cells: Ba/F3 (retroviral, pBabe-Puro based vector)
The following applies: Ba/F3 cells expressing EGFR S768dupSVD; 72 hours. Here is the method: as §1, §2

The target of another experiment is T10, EGFR G719A (Homo sapiens, UniProt P00533, G719A).
T10 construct: expressed in transfected cells; host or cells: Ba/F3 (retroviral transduction, pBabe-Puro based vectors)
The following applies: Ba/F3 cells expressing EGFR G719A; 72 hours. Here is the method: as §1, §2

Another experiment has as its target T11, EGFR K754E (Homo sapiens, UniProt P00533, K754E).
T11 construct: expressed in transfected cells; host or cells: Ba/F3 (retroviral, pBabe-Puro based vector)
The following applies: Ba/F3 cells expressing EGFR K754E; 72 hours. Here is the method:
as §1, §2

Another experiment addresses T12, EGFR T790M (Homo sapiens, UniProt P00533, T790M).
T12 construct: expressed in transfected cells; host or cells: Ba/F3 (retroviral transduction, pBabe-Puro based vectors)
The following applies: Ba/F3 cells expressing EGFR T790M; 72 hours. Here is the method: as §1, §2

The next experiment concerns the target T13, EGFR G719A T790M (Homo sapiens, UniProt P00533, G719A/T790M).
T13 construct: expressed in transfected cells; host or cells: Ba/F3 (retroviral transduction, pBabe-Puro based vectors)
The conditions noted are these: Ba/F3 cells expressing EGFR G719A T790M; 72 hours. As for the experimental part: as §1, §2

Experiment [1] has as its target T14, EGFR L747_K754del insATSPE (Homo sapiens, UniProt P00533, DEL747-749/K754E).
T14 construct: expressed in transfected cells; host or cells: Ba/F3 (retroviral, pBabe-Puro based vector)
The conditions noted are these: Ba/F3 cells expressing EGFR L747_K754del insATSPE; 72 hours. As for the experimental part:
as §1, §2

A further experiment addresses T15, EGFR G719S (Homo sapiens, UniProt P00533, G719S).
T15 construct: expressed in transfected cells; host or cells: Ba/F3 (retroviral transduction, pBabe-Puro based vectors)
The following applies: Ba/F3 cells expressing EGFR G719S; 72 hours. As for the experimental part: as §1, §2

Molecules are shown by their SMILES.

Take `C=CC(=O)N1CCC(Oc2cc3c(Nc4ccc(Cl)c(Cl)c4F)ncnc3cc2OC)CC1` [Poziotinib]: the “Response of Cells Comprising Classical-Like EGFR Mutations to Second-Generation TKIs” value at EGFR L861Q is 0.02499; on EGFR L858R/V834L, 0.08599; at EGFR K754E it was 0.009588. Further, the “Response of Cells Comprising T790M-like-R EGFR Mutations to Second-Generation TKIs” value on EGFR L858R/T790M/L718Q amounted to 70.12; at EGFR G724S T790M, 2.924. The “Response of Cells Comprising PACC EGFR Mutations to Second-Generation TKIs” value on EGFR Ex19del L718Q came to 0.107; at EGFR L718V, 0.2403; at EGFR L858R L718Q, 0.01623; at EGFR G719A, 0.02575; on EGFR G719S, 0.04616. Besides, the “Response of Cells Comprising T790M-like-S EGFR Mutations to Second-Generation TKIs” value on EGFR Ex19del T790M L718V is on record as 15.89; on EGFR T790M, 4.671; on EGFR G719A T790M, 0.4851; in experiment [1] it was 0.8493. Moreover, at EGFR S768dupSVD, the “Response of Cells Comprising Ex20ins EGFR Mutations to Poziotinib” value is on record as 0.09327.

The values above are taken from US20240108623A1, “METHODS OF TREATING CANCER WITH POZIOTINIB” (BOARD OF REGENTS, THE UNIVERSITY OF TEXAS SYSTEM, priority 2021, published 2024).
